Data: paper PMC7542159, “Receptor occupancy of dual glucagon-like peptide 1/glucagon receptor agonist SAR425899 in individuals with type 2 diabetes” (Scientific Reports, 2020)

Legend:
[1] = Plasma pharmacokinetics of SAR425899 (LC-MS/MS); conditions: human, in vivo, sc, 0.2 mg
Experimental: Blood samples were collected at multiple time points after the last dose on Day 20 for measurement of SAR425899 in plasma using a liquid chromatography with tandem mass spectrometry (LC–MS/MS) method. Peak plasma concentrations (Cmax), time to Cmax (tmax) and area under the plasma concentration versus time curve for the last measurable plasma concentration (AUC0–last) were calculated using noncompartmental methods.

[2] = Liver volume on CT images; type: in vivo, human; conditions: for Liver volume change: Fig. 2B
Experimental: Both factors could potentially quantitatively impact the binding of [^68Ga]Ga-DO3A-Tuna-2 in the liver. Thus, the SUV55min at follow-up investigation was proportionally corrected for the decrease in liver volume compared to baseline. Additionally, SUV55min at baseline was corrected to the plasma glucagon value of the individual at follow-up to enable direct comparison between the PET assessments.
Marked weight loss and glucose lowering, as observed in this study, may have rapid and meaningful effects on the hepatic volume in short time periods, due primarily to the depletion of liver glycogen, which in turn bind large amounts of water. A reduction of the liver volume due to decrease in glycogen and water could likely affect the PET data by increasing the hepatocyte density (and in turn the GCGR density) per voxel. The liver volume was therefore assessed on CT images, and the [^68Ga]Ga-DO3A-Tuna-2 liver uptake SUV55min data corrected for the corresponding change in hepatic volume on an individual level. However, this correction may also introduce errors especially since there are inhomogeneities in GCGR expression levels in different parts of the liver (Fig. 3A,C,E). Furthermore, this correction assumes negligible changes on GCGR expression on hepatocytes over time. The occupancy data before the different corrections are therefore reported separately in Fig. 4C,D. Further corrections regarding the potentially non-isotropic GCGR expression could be attempted, but regardless the impact on the occupancy is expected to be low, while potentially introducing noise to the assessment. [^68Ga]Ga-DO3A-Exendin-4 uptake in pancreas is not expected to require correction, as no similar mechanism for rapid volume change is present in pancreas.

human GCGR = target: T1, human GCGR (Homo sapiens, UniProt P47871); experiment: In vitro displacement of [^68Ga]Ga-DO3A-Tuna-2 in HEK293 cells overexpressing the human GCGR; type: binding; conditions: pre-treatment with 50 µM, three independent experiments
T1 construct: expressed in transfected cells; host or cells: HEK293
Experimental: Figure 5 [^68Ga]Ga-DO3A-Tuna-2 was displaced by SAR525899 in vitro. HEK293 cells overexpressing the human GCGR were incubated with either [^68Ga]Ga-DO3A-Tuna-2 alone, or following pre-treatment with 50 µM SAR525899. Data from three independent repeated experiments. Stars indicate p < 0.001 as assessed by a Students t-test.

GLP1R = conditions: higher at GLP1R; cited from earlier work
From the text: Noteworthy, the in vitro binding affinity for SAR425899 at the GLP1R was ~ fivefold higher than at the GCGR. This ratio of binding capacities has been chosen to prevent unwanted glucagon effects like increase of blood glucose. In fact, an increase of blood glucose has not been observed so far in a clinical setting. […] The exposure achieved with this dose in humans, however, might be too low to ...

T1 sequence (P47871 26-477): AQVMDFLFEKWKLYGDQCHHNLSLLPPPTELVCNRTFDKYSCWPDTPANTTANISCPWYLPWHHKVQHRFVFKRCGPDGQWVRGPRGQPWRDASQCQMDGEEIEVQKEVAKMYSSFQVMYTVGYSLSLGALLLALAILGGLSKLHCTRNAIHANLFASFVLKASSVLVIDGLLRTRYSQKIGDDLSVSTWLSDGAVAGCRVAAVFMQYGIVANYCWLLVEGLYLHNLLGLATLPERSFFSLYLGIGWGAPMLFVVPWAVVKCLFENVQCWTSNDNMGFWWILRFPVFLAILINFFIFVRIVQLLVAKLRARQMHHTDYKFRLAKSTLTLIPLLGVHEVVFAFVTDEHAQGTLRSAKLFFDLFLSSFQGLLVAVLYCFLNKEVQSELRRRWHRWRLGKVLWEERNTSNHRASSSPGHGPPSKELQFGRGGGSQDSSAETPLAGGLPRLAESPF

Work on `CCCCCCCCCCCCCCCC(=O)N[C@@H](CCC(=O)N[C@@H](CCC(=O)NCCCC[C@H](NC(=O)[C@H](CCC(N)=O)NC(=O)[C@H](CCCCN)NC(=O)[C@H](CO)NC(=O)[C@H](CC(C)C)NC(=O)[C@H](CC(=O)O)NC(=O)[C@H](CO)NC(=O)[C@@H](NC(=O)[C@H](Cc1ccccc1)NC(=O)[C@@H](NC(=O)CNC(=O)[C@H](CCC(N)=O)NC(=O)[C@@H](CO)NC(=O)[C@@H](N)Cc1c[nH]cn1)[C@@H](C)O)[C@@H](C)O)C(=O)N[C@@H](CCC(=O)O)C(=O)N[C@@H](CO)C(=O)N[C@@H](CCCCN)C(=O)N[C@@H](C)C(=O)N[C@@H](C)C(=O)N[C@@H](CCC(N)=O)C(=O)N[C@@H](CC(=O)O)C(=O)N[C@@H](Cc1ccccc1)C(=O)N[C@H](C(=O)N[C@@H](CCC(=O)O)C(=O)N[C@@H](Cc1c[nH]c2ccccc12)C(=O)N[C@@H](CC(C)C)C(=O)N[C@@H](CCCCN)C(=O)N[C@@H](C)C(=O)NCC(=O)NCC(=O)N1CCC[C@H]1C(=O)N[C@@H](CO)C(=O)N[C@@H](CO)C(=O)NCC(=O)N[C@@H](C)C(=O)N1CCC[C@H]1C(=O)N1CCC[C@H]1C(=O)N1CCC[C@H]1C(=O)N[C@@H](CO)C(N)=O)[C@@H](C)CC)C(=O)O)C(=O)O` [SAR425899] yielded an AUC(0-t) [1] of 217 ng·h/mL, a Cmax [1] of 25.1 ng/mL and a Tmax [1] of 7.62 h. For the same compound, the Liver volume change ([2]; 0.12mg) was -0.8%, the Liver volume change ([2]; 0.2mg) was -10.4% and the “decrease in liver volume” value ([2]; under treatment with SAR425899, average (SD)) was 10.4 (6.1) %. For the same compound, the “liver volume at follow up” value ([2]; under treatment with SAR425899, mean (SD), baseline 2.14 (0.45) dm^3) was 1.91 (0.36) dm^3, the “displacement of [^68Ga]Ga-DO3A-Tuna-2” value (human GCGR; p < 0.001) was “competes for the same binding site” and the “displacement of [^68Ga]Ga-DO3A-Tuna-2” value (human GCGR; p < 0.001, listed as SAR525899) was “displaced”. For the same compound, the “in vitro binding affinity at the GLP1R relative to the GCGR” value (GLP1R) was “~ fivefold”.
